Experimental data taken from ChEMBL document CHEMBL1134027, “An improved method for the rapid preparation of 2-amino-4,4a-dihydro-4a,7-dimethyl-3H-phenoxazine-3-one, a novel antitumor agent” (2001).

Legend:
Format in all cases: functional
[1] = Inhibition of incorporation of [3H]thymidine into DNA of human lymphoid leukemia HAL-01 cell at 200 uM after 1 hr
[2] = Inhibition of incorporation of [3H]thymidine into DNA of human lymphoid leukemia HAL-01 cell at 0 uM after 1 hr
[3] = tested on: HL-60; assay: Inhibition of incorporation of [3H]thymidine into DNA of human myeloid leukemia HL-60 cell at 200 uM after 1 hr
[4] = tested on: HL-60; assay: Inhibition of incorporation of [3H]thymidine into DNA of human myeloid leukemia HL-60 cell at 100 uM after 2 hr
[5] = tested on: HL-60; assay: Inhibition of incorporation of [3H]-thymidine into DNA of human myeloid leukemia HL-60 cell at 0 uM after 4 hr
[6] = tested on: HL-60; assay: Inhibition of incorporation of [3H]thymidine into DNA of human myeloid leukemia HL-60 cell at 0 uM after 1 hr
[7] = Inhibition of incorporation of [3H]thymidine into DNA of human lymphoid leukemia HAL-01 cell at 200 uM after 8 hr
[8] = tested on: HL-60; assay: Inhibition of incorporation of [3H]thymidine into DNA of human myeloid leukemia HL-60 cell at 200 uM after 8 hr
[9] = Inhibition of incorporation of [3H]thymidine into DNA of human lymphoid leukemia HAL-01 cell at 0 uM after 2 hr
[10] = tested on: HL-60; assay: Inhibition of incorporation of [3H]-thymidine into DNA of human myeloid leukemia HL-60 cell at 100 uM after 4 hr
[11] = Inhibition of incorporation of [3H]thymidine into DNA of human lymphoid leukemia HAL-01 cell at 100 uM after 8 hr
[12] = tested on: HL-60; assay: Inhibition of incorporation of [3H]thymidine into DNA of human myeloid leukemia HL-60 cell at 0 uM after 2 hr
[13] = tested on: HL-60; assay: Inhibition of incorporation of [3H]thymidine into DNA of human myeloid leukemia HL-60 cell at 100 uM after 8 hr
[14] = Inhibition of incorporation of [3H]thymidine into DNA of human lymphoid leukemia HAL-01 cell at 200 uM after 4 hr
[15] = Inhibition of incorporation of [3H]thymidine into DNA of human lymphoid leukemia HAL-01 cell at 0 uM after 8 hr
[16] = tested on: HL-60; assay: Inhibition of incorporation of [3H]thymidine into DNA of human myeloid leukemia HL-60 cell at 0 uM after 8 hr
[17] = Inhibition of incorporation of [3H]thymidine into DNA of human lymphoid leukemia HAL-01 cell at 100 uM after 2 hr
[18] = tested on: HL-60; assay: Inhibition of incorporation of [3H]thymidine into DNA of human myeloid leukemia HL-60 cell at 200 uM after 2 hr
[19] = Inhibition of incorporation of [3H]thymidine into DNA of human lymphoid leukemia HAL-01 cell at 200 uM after 2 hr
[20] = Inhibition of incorporation of [3H]thymidine into DNA of human lymphoid leukemia HAL-01 cell at 0 uM after 4 hr
[21] = Inhibition of incorporation of [3H]thymidine into DNA of human lymphoid leukemia HAL-01 cell at 100 uM after 4 hr
[22] = tested on: HL-60; assay: Inhibition of incorporation of [3H]thymidine into DNA of human myeloid leukemia HL-60 cell at 100 uM after 1 hr
[23] = tested on: HL-60; assay: Inhibition of incorporation of [3H]thymidine into DNA of human myeloid leukemia HL-60 cell at 200 uM after 4 hr
[24] = Inhibition of incorporation of [3H]thymidine into DNA of human lymphoid leukemia HAL-01 cell at 100 uM after 1 hr

Cc1ccc2c(c1)OC1(C)CC(=O)C(N)=CC1=N2 (centres undefined)
No. of cells [1]: 0 | No. of cells [2]: 0 | No. of cells [3]: 0 | No. of cells [4]: 14000 | No. of cells [5]: 25000 | No. of cells [6]: 0 | No. of cells [7]: 14000 | No. of cells [8]: 12000 | No. of cells [9]: 25000 | No. of cells [10]: 15000 | No. of cells [11]: 19000 | No. of cells [12]: 21000 | No. of cells [13]: 19000 | No. of cells [14]: 10000 | No. of cells [15]: 40000 | No. of cells [16]: 35000 | No. of cells [17]: 17000 | No. of cells [18]: 6000 | No. of cells [19]: 9000 | No. of cells [20]: 34000 | No. of cells [21]: 18000 | No. of cells [22]: 0 | No. of cells [23]: 9000 | No. of cells [24]: 0
